From ChEMBL document CHEMBL5212743, “Selectivity Literature for EUbOPEN Chemogenomics Library wave 3” (2023)
One block for each compound: values may come before it.

What was measured:
[1] = biological target: Proto-oncogene tyrosine-protein kinase ROS (Homo sapiens) (UniProt P08922); conditions: at 1 µM
[2] = biological target: T1, Alpha-1A adrenergic receptor (Homo sapiens) (UniProt P35348); assay: Selectivity interaction (SafetyScreen44™ (Eurofins, panel of GPCRS, ion channels, transporters) ) EUB0000169b ADRA1A; conditions: at 10 µM
T1 sequence (whole entry): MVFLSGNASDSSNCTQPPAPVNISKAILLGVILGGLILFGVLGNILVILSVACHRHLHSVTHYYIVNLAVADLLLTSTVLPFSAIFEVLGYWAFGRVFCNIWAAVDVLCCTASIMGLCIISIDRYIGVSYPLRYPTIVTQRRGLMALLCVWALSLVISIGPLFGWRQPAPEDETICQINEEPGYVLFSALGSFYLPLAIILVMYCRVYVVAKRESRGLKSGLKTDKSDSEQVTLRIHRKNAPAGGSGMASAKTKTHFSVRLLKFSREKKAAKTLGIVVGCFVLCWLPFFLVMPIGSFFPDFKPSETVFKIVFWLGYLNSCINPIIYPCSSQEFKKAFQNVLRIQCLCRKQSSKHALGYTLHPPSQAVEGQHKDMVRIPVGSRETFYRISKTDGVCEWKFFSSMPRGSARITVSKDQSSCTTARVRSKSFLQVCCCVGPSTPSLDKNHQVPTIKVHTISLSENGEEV

[3] = biological target: T2, Mitogen-activated protein kinase kinase kinase 19 (Homo sapiens) (UniProt Q56UN5); assay: Selectivity interaction (KinomeScan (DiscoverX)) EUB0000138c MAP3K19; conditions: at 100 nM
T2 sequence (whole entry): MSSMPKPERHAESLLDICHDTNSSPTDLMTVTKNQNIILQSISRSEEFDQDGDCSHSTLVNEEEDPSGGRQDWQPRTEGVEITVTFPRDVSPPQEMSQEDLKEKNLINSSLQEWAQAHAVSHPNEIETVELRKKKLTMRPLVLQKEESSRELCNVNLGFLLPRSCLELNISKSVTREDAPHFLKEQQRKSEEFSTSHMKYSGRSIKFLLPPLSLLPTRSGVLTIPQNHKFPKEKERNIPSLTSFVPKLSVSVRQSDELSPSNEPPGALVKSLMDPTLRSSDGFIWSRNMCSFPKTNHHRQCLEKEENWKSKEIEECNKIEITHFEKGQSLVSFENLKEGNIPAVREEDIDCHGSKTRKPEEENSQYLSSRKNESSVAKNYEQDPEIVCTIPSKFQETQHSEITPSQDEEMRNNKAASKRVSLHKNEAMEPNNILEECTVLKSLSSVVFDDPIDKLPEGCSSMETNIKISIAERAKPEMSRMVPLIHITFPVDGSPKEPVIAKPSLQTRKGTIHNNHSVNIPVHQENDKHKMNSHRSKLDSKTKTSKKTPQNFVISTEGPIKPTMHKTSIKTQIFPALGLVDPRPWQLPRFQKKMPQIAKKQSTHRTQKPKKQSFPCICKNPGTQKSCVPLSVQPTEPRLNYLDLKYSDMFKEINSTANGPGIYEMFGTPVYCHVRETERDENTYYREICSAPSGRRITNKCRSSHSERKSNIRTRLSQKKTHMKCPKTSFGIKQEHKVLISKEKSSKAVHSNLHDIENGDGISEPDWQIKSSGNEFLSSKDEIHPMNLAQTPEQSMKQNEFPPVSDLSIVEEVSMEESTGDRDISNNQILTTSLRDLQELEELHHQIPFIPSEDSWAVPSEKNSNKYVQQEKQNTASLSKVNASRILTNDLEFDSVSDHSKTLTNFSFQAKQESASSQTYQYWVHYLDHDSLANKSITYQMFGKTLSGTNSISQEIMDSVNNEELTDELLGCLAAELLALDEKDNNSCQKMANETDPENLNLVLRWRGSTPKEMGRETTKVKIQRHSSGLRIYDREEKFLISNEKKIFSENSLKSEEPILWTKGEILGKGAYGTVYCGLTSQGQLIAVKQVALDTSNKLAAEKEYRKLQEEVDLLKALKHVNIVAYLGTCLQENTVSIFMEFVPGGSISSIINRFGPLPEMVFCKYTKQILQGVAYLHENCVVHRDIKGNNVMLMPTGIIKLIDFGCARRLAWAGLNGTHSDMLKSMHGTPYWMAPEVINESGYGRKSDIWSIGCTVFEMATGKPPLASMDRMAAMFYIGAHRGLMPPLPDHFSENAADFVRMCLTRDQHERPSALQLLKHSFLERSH

[4] = test system: Receptor-type tyrosine-protein kinase FLT3 (Homo sapiens), P36888 [D835H]; assay: Selectivity interaction (KinomeScan (DiscoverX)) EUB0000138c FLT3; conditions: at 100 nM
[5] = biological target: T3, Phosphatidylinositol 5-phosphate 4-kinase type-2 beta (Homo sapiens) (UniProt P78356); assay: Selectivity interaction (KinomeScan (DiscoverX)) EUB0000702a PIP4K2B; conditions: at 1 µM
T3 sequence (whole entry): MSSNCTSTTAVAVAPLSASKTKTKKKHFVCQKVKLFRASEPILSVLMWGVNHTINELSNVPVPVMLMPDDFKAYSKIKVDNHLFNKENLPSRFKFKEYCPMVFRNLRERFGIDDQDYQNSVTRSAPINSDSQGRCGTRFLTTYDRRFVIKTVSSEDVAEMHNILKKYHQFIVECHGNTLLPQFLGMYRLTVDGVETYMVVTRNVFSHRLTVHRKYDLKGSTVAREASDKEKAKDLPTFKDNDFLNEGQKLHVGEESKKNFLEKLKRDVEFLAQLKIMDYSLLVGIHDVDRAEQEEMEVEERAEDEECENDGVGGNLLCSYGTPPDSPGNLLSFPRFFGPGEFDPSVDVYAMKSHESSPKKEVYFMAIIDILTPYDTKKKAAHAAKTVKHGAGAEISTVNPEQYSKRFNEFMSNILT

[6] = biological target: Bone morphogenetic protein receptor type-1B (Homo sapiens) (UniProt O00238); assay: Selectivity interaction (KinomeScan (DiscoverX)) EUB0000702a BMPR1B; conditions: at 1 µM
Sequence of Bone morphogenetic protein receptor type-1B (Homo sapiens) (O00238 whole entry): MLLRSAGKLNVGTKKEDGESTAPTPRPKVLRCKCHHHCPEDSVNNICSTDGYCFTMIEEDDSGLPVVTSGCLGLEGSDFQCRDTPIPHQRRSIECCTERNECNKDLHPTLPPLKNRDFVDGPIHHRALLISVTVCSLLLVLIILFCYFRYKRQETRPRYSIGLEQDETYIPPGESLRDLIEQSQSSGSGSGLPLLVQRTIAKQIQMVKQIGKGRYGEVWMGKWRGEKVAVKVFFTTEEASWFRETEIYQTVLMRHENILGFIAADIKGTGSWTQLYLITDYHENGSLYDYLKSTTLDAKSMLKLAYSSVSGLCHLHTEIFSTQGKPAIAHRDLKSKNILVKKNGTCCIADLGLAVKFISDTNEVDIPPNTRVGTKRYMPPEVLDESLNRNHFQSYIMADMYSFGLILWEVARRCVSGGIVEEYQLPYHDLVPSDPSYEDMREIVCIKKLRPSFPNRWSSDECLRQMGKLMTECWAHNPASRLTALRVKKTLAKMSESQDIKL

[7] = biological target: Receptor-type tyrosine-protein kinase FLT3 (Homo sapiens, UniProt P36888); assay: Selectivity interaction (NanoBRET assay (HEK293T cells)) EUB0000305b FLT3

Sequence of Proto-oncogene tyrosine-protein kinase ROS (Homo sapiens) (P08922 whole entry): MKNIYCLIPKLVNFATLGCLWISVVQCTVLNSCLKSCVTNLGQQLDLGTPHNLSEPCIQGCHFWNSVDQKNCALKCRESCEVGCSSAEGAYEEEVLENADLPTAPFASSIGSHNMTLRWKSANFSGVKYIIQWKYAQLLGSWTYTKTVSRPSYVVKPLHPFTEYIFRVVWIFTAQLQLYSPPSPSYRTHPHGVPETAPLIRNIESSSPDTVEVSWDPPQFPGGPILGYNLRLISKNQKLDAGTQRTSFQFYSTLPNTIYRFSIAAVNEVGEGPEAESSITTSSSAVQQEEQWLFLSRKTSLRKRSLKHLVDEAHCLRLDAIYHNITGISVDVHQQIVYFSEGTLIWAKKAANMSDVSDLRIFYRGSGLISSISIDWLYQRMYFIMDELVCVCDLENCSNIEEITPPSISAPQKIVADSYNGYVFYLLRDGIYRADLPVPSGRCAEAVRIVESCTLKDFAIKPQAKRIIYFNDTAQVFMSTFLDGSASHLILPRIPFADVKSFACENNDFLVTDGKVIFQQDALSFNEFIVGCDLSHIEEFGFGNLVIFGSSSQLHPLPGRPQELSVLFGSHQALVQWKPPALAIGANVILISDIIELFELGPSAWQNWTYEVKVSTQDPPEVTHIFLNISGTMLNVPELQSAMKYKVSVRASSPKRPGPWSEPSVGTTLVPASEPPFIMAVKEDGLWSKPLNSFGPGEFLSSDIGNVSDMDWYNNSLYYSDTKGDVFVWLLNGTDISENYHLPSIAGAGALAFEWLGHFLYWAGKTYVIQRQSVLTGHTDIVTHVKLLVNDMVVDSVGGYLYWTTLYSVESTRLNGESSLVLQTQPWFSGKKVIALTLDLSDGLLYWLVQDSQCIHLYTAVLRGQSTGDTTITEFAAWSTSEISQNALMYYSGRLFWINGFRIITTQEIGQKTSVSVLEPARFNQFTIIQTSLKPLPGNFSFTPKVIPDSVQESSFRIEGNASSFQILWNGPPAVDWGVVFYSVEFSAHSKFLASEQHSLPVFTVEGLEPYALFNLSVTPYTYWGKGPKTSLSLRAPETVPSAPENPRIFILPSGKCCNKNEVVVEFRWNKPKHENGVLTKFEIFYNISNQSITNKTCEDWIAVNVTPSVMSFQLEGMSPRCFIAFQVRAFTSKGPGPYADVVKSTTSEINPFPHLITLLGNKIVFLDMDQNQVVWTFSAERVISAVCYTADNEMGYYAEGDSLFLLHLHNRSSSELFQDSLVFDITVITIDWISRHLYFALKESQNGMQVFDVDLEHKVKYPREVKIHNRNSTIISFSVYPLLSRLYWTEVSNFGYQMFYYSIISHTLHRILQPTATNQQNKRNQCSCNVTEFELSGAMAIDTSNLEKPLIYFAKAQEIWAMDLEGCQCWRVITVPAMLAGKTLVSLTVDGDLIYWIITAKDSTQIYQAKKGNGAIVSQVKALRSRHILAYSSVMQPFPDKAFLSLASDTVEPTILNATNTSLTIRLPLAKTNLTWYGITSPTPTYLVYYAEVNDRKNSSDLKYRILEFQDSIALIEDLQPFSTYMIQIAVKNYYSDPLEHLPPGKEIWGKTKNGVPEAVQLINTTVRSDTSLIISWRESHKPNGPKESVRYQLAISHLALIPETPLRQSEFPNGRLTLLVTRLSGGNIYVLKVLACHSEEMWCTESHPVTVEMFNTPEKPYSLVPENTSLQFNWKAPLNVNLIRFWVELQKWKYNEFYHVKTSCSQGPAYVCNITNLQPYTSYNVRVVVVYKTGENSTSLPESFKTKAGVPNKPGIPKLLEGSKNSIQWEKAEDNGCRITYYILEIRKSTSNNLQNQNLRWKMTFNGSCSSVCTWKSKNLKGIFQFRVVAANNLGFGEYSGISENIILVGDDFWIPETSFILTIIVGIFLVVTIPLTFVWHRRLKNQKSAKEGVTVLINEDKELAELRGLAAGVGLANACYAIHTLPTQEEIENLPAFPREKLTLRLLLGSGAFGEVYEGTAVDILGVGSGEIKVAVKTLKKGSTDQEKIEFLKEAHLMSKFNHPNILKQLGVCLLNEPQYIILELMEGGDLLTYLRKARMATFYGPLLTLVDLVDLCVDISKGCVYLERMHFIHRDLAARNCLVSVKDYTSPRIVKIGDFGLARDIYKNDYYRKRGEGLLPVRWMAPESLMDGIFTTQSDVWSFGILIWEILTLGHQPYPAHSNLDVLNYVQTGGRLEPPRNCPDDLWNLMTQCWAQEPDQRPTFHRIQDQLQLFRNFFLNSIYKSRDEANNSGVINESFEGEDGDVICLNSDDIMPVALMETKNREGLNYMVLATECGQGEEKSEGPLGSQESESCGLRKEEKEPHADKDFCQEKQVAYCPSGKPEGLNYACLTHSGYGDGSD

% of control [3]: 1.7%
% of control [4]: 99.8%
Compound: CNC(=O)c1ccc(Nc2ncc(C(F)(F)F)c(NCc3nccnc3N(C)S(C)(=O)=O)n2)cc1 [DEFACTINIB]

% of control [5]: 4.8%
% of control [6]: 3.6%
Compound: CN(c1ccnc(CNc2nc(Nc3ccc4c(c3)CC(=O)N4)ncc2C(F)(F)F)n1)S(C)(=O)=O [PF-00911705]

The next lines start with the compound.

Compound: CCOc1cn(-c2ccc(F)cc2C)nc1C(=O)Nc1ccc(Oc2ccnc3cc(OC)c(OC)cc23)c(F)c1
% of control [1]: < 10%

Compound: CC[C@@H]1C(=O)N(C)c2cnc(Nc3ccc(C(=O)NC4CCN(C)CC4)cc3OC)nc2N1C1CCCC1
% of control [2]: 13%

Compound: C[C@H](c1ccnc(Nc2nc3ccc(-c4cc(N(C)C)ncn4)cc3[nH]2)c1)N1CCN(C(=O)CC(F)(F)F)CC1 [BAY-985]
IC50 [7]: > 20 µM
